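Test compounds were applied to cells in 96-well plates for 48 hours at 5 doses. GI50 is the concentration that inhibits growth by half.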 Calls of active or inactive are those of the source. Cut-off read from the data, not from the text of the source: active = GI50 up to about 1.1 µM and inactive = higher.
Columns and labels:
Test in all cases: NCI-60 cell line screen, 48 h
[1] = system: T47D
[2] = system: CCRF-CEM
[3] = system: PC-3
[4] = system: K562
[5] = system: ACHN
[6] = system: RPMI-8226
[7] = system: MDA-MB-231
[8] = system: HCT-15
[9] = system: KM12
[10] = system: EKVX
[11] = system: U-251
[12] = system: COLO 205
[13] = system: SNB-19
[14] = system: HCT-116
[15] = system: NCI/ADR-RES
[16] = system: OVCAR-4
[17] = system: IGROV-1
[18] = system: MOLT-4
[19] = system: LOX IMVI
[20] = system: CAKI-1
[21] = system: SK-MEL-2
[22] = system: HT-29
[23] = system: SF-295
[24] = system: SK-MEL-28
[25] = system: HCC 2998
[26] = system: A498
[27] = system: SF-539
[28] = system: HOP-92
[29] = system: MDA-N
[30] = system: SK-MEL-5
[31] = system: HL-60
[32] = system: SK-OV-3
[33] = system: SN12C
[34] = system: UACC-62
[35] = system: BT-549
[36] = system: NCI-H23
[37] = system: Malme-3M
[38] = system: RXF 393
[39] = system: SW-620
[40] = system: UACC-257
[41] = system: NCI-H522
[42] = system: 786-0
[43] = system: NCI-H460
[44] = system: UO-31
[45] = system: DU-145
[46] = system: HOP-62
[47] = system: SR
[48] = system: NCI-H226
[49] = system: OVCAR-8
[50] = system: TK-10
[51] = system: Hs-578T
[52] = system: OVCAR-3
[53] = system: MDA-MB-435
[54] = system: A549
[55] = system: OVCAR-5
[56] = system: MCF7
[57] = system: SF-268
[58] = system: M14
[59] = system: SNB-75

O=C1C=CC(=O)N1n1c(Cc2ccccc2)n[nH]c1=O
GI50 [1]: > 100 µM (inactive) | GI50 [2]: > 100 µM (inactive) | GI50 [3]: > 100 µM (inactive) | GI50 [4]: > 100 µM (inactive) | GI50 [5]: > 100 µM (inactive) | GI50 [6]: > 100 µM (inactive) | GI50 [7]: > 100 µM (inactive) | GI50 [8]: > 100 µM | GI50 [9]: > 100 µM (inactive) | GI50 [10]: > 100 µM (inactive) | GI50 [11]: > 100 µM (inactive) | GI50 [12]: > 100 µM (inactive) | GI50 [13]: > 100 µM (inactive) | GI50 [14]: > 100 µM (inactive) | GI50 [15]: > 100 µM (inactive) | GI50 [16]: > 100 µM (inactive) | GI50 [17]: > 100 µM (inactive) | GI50 [18]: > 100 µM (inactive) | GI50 [19]: > 100 µM (inactive) | GI50 [20]: > 100 µM (inactive) | GI50 [21]: > 100 µM (inactive) | GI50 [22]: > 100 µM (inactive) | GI50 [23]: > 100 µM (inactive) | GI50 [24]: > 100 µM (inactive) | GI50 [25]: > 100 µM (inactive) | GI50 [26]: > 100 µM (inactive) | GI50 [27]: > 100 µM (inactive) | GI50 [28]: > 100 µM (inactive) | GI50 [29]: > 100 µM (inactive) | GI50 [30]: > 100 µM (inactive) | GI50 [31]: > 100 µM (inactive) | GI50 [32]: > 100 µM (inactive) | GI50 [33]: > 100 µM (inactive) | GI50 [34]: > 100 µM (inactive) | GI50 [35]: > 100 µM (inactive) | GI50 [36]: > 100 µM (inactive) | GI50 [37]: > 100 µM (inactive) | GI50 [38]: > 100 µM (inactive) | GI50 [39]: > 100 µM (inactive) | GI50 [40]: > 100 µM (inactive) | GI50 [41]: > 100 µM (inactive) | GI50 [42]: > 100 µM (inactive) | GI50 [43]: > 100 µM (inactive) | GI50 [44]: > 100 µM (inactive) | GI50 [45]: > 100 µM (inactive) | GI50 [46]: > 100 µM (inactive) | GI50 [47]: > 100 µM (inactive) | GI50 [48]: > 100 µM (inactive) | GI50 [49]: > 100 µM (inactive) | GI50 [50]: > 100 µM (inactive) | GI50 [51]: > 100 µM (inactive) | GI50 [52]: > 100 µM (inactive) | GI50 [53]: > 100 µM (inactive) | GI50 [54]: > 100 µM (inactive) | GI50 [55]: > 100 µM (inactive) | GI50 [56]: > 100 µM (inactive) | GI50 [57]: > 100 µM (inactive)

CCN1C(=S)n2cccc2C1CC(=O)c1ccc(Cl)cc1 (centres undefined)
GI50 [1]: 56.6 µM (inactive) | GI50 [58]: 89.9 µM (inactive) | GI50 [3]: 40.2 µM (inactive) | GI50 [4]: 53.7 µM (inactive) | GI50 [5]: > 100 µM (inactive) | GI50 [6]: 15.7 µM (inactive) | GI50 [7]: 59.6 µM (inactive) | GI50 [59]: 54.7 µM (inactive) | GI50 [8]: 51.8 µM | GI50 [9]: > 100 µM (inactive) | GI50 [10]: 32.3 µM (inactive) | GI50 [11]: 36 µM (inactive) | GI50 [13]: 75.3 µM (inactive) | GI50 [14]: 33 µM (inactive) | GI50 [15]: 42.4 µM (inactive) | GI50 [16]: 93.3 µM (inactive) | GI50 [17]: > 100 µM (inactive) | GI50 [18]: 22.8 µM (inactive) | GI50 [19]: 58.9 µM (inactive) | GI50 [20]: > 100 µM (inactive) | GI50 [21]: 58.2 µM (inactive) | GI50 [22]: 68.7 µM (inactive) | GI50 [23]: 63.7 µM (inactive) | GI50 [24]: 54.1 µM (inactive) | GI50 [25]: 73.8 µM (inactive) | GI50 [26]: 43.5 µM (inactive) | GI50 [28]: > 100 µM (inactive) | GI50 [29]: 88.5 µM (inactive) | GI50 [31]: 26.7 µM (inactive) | GI50 [32]: > 100 µM (inactive) | GI50 [33]: > 100 µM (inactive) | GI50 [34]: 62.2 µM (inactive) | GI50 [35]: 64.9 µM (inactive) | GI50 [36]: 13 µM (inactive) | GI50 [37]: 57.3 µM (inactive) | GI50 [38]: > 100 µM (inactive) | GI50 [39]: 42.9 µM (inactive) | GI50 [40]: 18.4 µM (inactive) | GI50 [41]: 15.5 µM (inactive) | GI50 [42]: > 100 µM (inactive) | GI50 [43]: 34.7 µM (inactive) | GI50 [44]: 42.9 µM (inactive) | GI50 [45]: > 100 µM (inactive) | GI50 [46]: > 100 µM (inactive) | GI50 [47]: 57 µM (inactive) | GI50 [49]: > 100 µM (inactive) | GI50 [50]: 95.9 µM (inactive) | GI50 [51]: > 100 µM (inactive) | GI50 [52]: 74 µM (inactive) | GI50 [53]: 56.1 µM (inactive) | GI50 [54]: 15.3 µM (inactive) | GI50 [55]: 87.9 µM (inactive) | GI50 [56]: 24.8 µM (inactive) | GI50 [57]: 63.1 µM (inactive)

O=C(O)CCC(NC(=O)c1ccc(Nc2cnc3ccc(C(F)(F)F)cc3n2)cc1)C(=O)O (centres undefined)
GI50 [1]: > 100 µM (inactive) | GI50 [2]: > 100 µM (inactive) | GI50 [58]: > 100 µM (inactive) | GI50 [3]: > 100 µM (inactive) | GI50 [4]: > 100 µM (inactive) | GI50 [5]: > 100 µM (inactive) | GI50 [6]: > 100 µM (inactive) | GI50 [7]: > 100 µM (inactive) | GI50 [59]: > 100 µM (inactive) | GI50 [8]: > 100 µM | GI50 [9]: > 100 µM (inactive) | GI50 [10]: > 100 µM (inactive) | GI50 [11]: > 100 µM (inactive) | GI50 [12]: > 100 µM (inactive) | GI50 [13]: > 100 µM (inactive) | GI50 [14]: > 100 µM (inactive) | GI50 [15]: > 100 µM (inactive) | GI50 [16]: > 100 µM (inactive) | GI50 [17]: > 100 µM (inactive) | GI50 [18]: > 100 µM (inactive) | GI50 [19]: > 100 µM (inactive) | GI50 [20]: > 100 µM (inactive) | GI50 [21]: > 100 µM (inactive) | GI50 [22]: > 100 µM (inactive) | GI50 [23]: > 100 µM (inactive) | GI50 [24]: > 100 µM (inactive) | GI50 [25]: > 100 µM (inactive) | GI50 [26]: > 100 µM (inactive) | GI50 [27]: > 100 µM (inactive) | GI50 [28]: > 100 µM (inactive) | GI50 [29]: > 100 µM (inactive) | GI50 [30]: > 100 µM (inactive) | GI50 [31]: > 100 µM (inactive) | GI50 [32]: > 100 µM (inactive) | GI50 [33]: > 100 µM (inactive) | GI50 [34]: > 100 µM (inactive) | GI50 [35]: > 100 µM (inactive) | GI50 [36]: > 100 µM (inactive) | GI50 [37]: > 100 µM (inactive) | GI50 [38]: > 100 µM (inactive) | GI50 [39]: > 100 µM (inactive) | GI50 [40]: > 100 µM (inactive) | GI50 [42]: > 100 µM (inactive) | GI50 [43]: > 100 µM (inactive) | GI50 [44]: > 100 µM (inactive) | GI50 [45]: > 100 µM (inactive) | GI50 [46]: > 100 µM (inactive) | GI50 [47]: > 100 µM (inactive) | GI50 [48]: > 100 µM (inactive) | GI50 [49]: > 100 µM (inactive) | GI50 [50]: > 100 µM (inactive) | GI50 [51]: 45.9 µM (inactive) | GI50 [52]: > 100 µM (inactive) | GI50 [53]: > 100 µM (inactive) | GI50 [54]: > 100 µM (inactive) | GI50 [55]: > 100 µM (inactive) | GI50 [56]: > 100 µM (inactive) | GI50 [57]: > 100 µM (inactive)

— ChEMBL document CHEMBL1201862, “PubChem BioAssay data set” (2004)
